Our source for the survival and IC50 values is patent US20200000752A1, “Method for Treating Epilepsy” (Vanderbilt University, priority 2016, published 2020).

In experiment [1] the test system is Gabrg2^+/Q390X mice. As to the kind of experiment: Early intermittent dosing, survival of Gabrg2+/Q390X mice. The note with it: 0.3 mg/kg intermittent from postnatal day 7; untreated ~25% mortality. The experiment is classed as in vivo, mouse. From the text: (FIG. 5B, C). Gabrg2^+/Q390X mice in C57/BL/6J background had ˜25% of mortality (B) while Scn1a^+/− mice in C57/BL/6J background had ˜60% of mortality by week 7 (C). […] The Gabrg2^+/Q390X mice were in C57/BL/6J background while Scn1a^+/− sires were from mixed S129/C57BL/6J and the dams were congenic C57/BL/6J. For each mouse model, heterozygous pups of both male and female from 6-8 litters were included.

The target in experiment [2] is CYP 2C8 (Homo sapiens, UniProt P10632). As to the kind of experiment: biochemical.
Sequence of CYP 2C8 (P10632 whole entry): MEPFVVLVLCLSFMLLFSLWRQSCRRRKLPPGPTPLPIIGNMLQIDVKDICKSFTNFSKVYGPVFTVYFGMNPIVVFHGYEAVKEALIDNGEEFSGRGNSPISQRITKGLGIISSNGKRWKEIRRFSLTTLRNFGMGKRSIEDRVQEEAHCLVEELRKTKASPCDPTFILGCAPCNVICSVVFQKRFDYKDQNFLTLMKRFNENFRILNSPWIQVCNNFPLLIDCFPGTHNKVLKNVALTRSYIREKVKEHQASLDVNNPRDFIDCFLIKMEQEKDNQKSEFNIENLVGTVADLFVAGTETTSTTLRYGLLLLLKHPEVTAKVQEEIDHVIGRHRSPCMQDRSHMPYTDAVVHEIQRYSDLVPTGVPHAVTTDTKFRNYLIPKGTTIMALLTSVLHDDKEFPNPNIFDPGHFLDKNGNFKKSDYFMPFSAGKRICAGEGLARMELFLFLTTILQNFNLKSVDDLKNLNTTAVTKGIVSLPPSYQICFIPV

For `CC1=C(O)C(=O)C=C2C1=CC=C1[C@@]2(C)CC[C@@]2(C)[C@@H]3C[C@](C)(C(=O)O)CC[C@]3(C)CC[C@]12C` [Celastrol, 3-Hydroxy-9β,13α-dimethyl-2-oxo-24,25,26-trinoroleana-1(10),3,5,7-tetraen-29-oic acid], the survival result in experiment [1] is given as “completely rescued the survival”. For the same compound, the IC50 (usually the concentration needed to halve the response being measured) in experiment [2] is 2.19 µM.
